The experiment deals with xanthine/xanthine oxidase. Briefly: antioxidant activity, xanthine/xanthine oxidase test. The format is biochemical. The settings on record: modified method of Rice Evans et al. and Masaki et al., n=10. From the text: The antioxidant activity of the turmeric extract obtained with solvent No. 2 (d-limonene) were studied using the xanthine/xanthine oxidase test according to the modified method of Rice Evans et al. (Techniques in free radical research, 1991, Elsevier, Paris) and Masaki et al. (Antioxygen scavenging activity of plant extracts, Biol. Pharm. Bull., 1995, 18 (1), 162-166).

As to `Oc1ncnc2[nH]ncc12` [allopurinol], the “antioxidant activity IC50” value stood at 0.06%.

Values taken from patent US20090306386A1, “Plant Extract Obtained by an Extraction Method by Means of Solvents of Plant Origin” (priority 2005, published 2009).
